{
  "source": "patent US8933230B2",
  "about": "“Phosphorus-containing group-substituted quinoline, its preparation process, medical composition containing the compounds and application” (priority 2011, dated 2015)",
  "assay_in_all_cases": "KinomeScan kinase panel",
  "type_in_all_cases": "binding",
  "key": {"CSNK1A1": {"target": "T1, CSNK1A1 (Homo sapiens, UniProt P48729)", "T1 construct": "purchased DiscoveRx Corporation (KinomeScan)", "how_it_was_run": "(§1)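 The compound was profiled across a 442-kinase KinomeScan binding panel at a fixed concentration of 1000 nM; values reflect inhibitory effect at that one dose.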"}, "ERK3": {"target": "T2, ERK3 (Homo sapiens, UniProt Q16659)", "T2 construct": "purchased DiscoveRx Corporation (KinomeScan)", "how_it_was_run": "as §1"}, "EGFR(G719S)": {"target": "T3, EGFR(G719S) (Homo sapiens, UniProt P00533, G719S)", "T3 construct": "purchased DiscoveRx Corporation (KinomeScan)", "how_it_was_run": "as §1"}, "RIOK3": {"target": "T4, RIOK3 (Homo sapiens, UniProt O14730)", "T4 construct": "purchased DiscoveRx Corporation", "how_it_was_run": "as §1"}, "TGFBR2": {"target": "T5, TGFBR2 (Homo sapiens, UniProt P37173)", "T5 construct": "purchased DiscoveRx Corporation (KinomeScan)", "how_it_was_run": "as §1"}, "IRAK3": {"target": "T6, IRAK3 (Homo sapiens, UniProt Q9Y616)", "T6 construct": "purchased DiscoveRx Corporation (KinomeScan)", "how_it_was_run": "as §1"}, "BMPR2": {"target": "T7, BMPR2 (Homo sapiens, UniProt Q13873)", "T7 construct": "purchased DiscoveRx Corporation (KinomeScan)", "T7 sequence (Q13873 27-1038)": "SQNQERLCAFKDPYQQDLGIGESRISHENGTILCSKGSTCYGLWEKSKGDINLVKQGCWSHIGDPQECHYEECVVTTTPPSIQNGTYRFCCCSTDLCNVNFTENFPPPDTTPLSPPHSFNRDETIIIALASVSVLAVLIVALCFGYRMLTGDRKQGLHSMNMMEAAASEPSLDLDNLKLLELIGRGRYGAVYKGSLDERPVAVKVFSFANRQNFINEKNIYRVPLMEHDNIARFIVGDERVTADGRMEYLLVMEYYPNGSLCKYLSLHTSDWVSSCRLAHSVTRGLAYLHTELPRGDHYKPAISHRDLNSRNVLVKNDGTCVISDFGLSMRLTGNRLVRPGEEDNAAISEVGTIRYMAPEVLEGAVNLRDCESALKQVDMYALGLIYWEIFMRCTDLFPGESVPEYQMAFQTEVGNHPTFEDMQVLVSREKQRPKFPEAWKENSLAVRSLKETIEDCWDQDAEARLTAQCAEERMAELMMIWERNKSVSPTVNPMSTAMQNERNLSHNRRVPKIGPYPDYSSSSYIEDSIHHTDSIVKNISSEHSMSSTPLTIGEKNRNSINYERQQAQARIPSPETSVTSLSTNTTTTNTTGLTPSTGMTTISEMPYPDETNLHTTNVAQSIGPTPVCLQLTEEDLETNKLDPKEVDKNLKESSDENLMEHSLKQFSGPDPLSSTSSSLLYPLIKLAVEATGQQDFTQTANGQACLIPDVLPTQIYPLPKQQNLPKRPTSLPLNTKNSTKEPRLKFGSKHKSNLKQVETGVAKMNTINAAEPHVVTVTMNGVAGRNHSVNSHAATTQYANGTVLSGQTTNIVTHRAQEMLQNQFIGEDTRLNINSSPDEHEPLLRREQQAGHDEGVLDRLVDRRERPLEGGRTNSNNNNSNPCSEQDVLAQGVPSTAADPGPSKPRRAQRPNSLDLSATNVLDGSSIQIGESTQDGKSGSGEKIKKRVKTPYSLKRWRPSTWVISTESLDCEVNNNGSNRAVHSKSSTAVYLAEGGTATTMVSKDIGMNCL", "how_it_was_run": "as §1"}, "PRKCH": {"target": "T8, PRKCH (Homo sapiens, UniProt P24723)", "T8 construct": "purchased DiscoveRx Corporation (KinomeScan)", "how_it_was_run": "as §1"}, "MET": {"target": "T9, MET (Homo sapiens, UniProt P08581)", "T9 construct": "purchased DiscoveRx Corporation (KinomeScan)", "how_it_was_run": "as §1"}, "IGF1R": {"target": "T10, IGF1R (Homo sapiens, UniProt P08069)", "T10 construct": "purchased DiscoveRx Corporation (KinomeScan)", "how_it_was_run": "as §1"}, "CLK1": {"target": "T11, CLK1 (Homo sapiens, UniProt P49759)", "T11 construct": "purchased DiscoveRx Corporation (KinomeScan)", "how_it_was_run": "as §1"}, "[1]": {"target": "T12, ABL1(Q252H)-nonphosphorylated (Homo sapiens, UniProt P00519, Q252H)", "T12 construct": "purchased DiscoveRx Corporation (KinomeScan)", "how_it_was_run": "as §1"}, "PIK3CA(C420R)": {"target": "T13, PIK3CA(C420R) (Homo sapiens, UniProt P42336, C420R)", "T13 construct": "purchased DiscoveRx Corporation (KinomeScan)", "T13 sequence (P42336 whole entry C420R)": "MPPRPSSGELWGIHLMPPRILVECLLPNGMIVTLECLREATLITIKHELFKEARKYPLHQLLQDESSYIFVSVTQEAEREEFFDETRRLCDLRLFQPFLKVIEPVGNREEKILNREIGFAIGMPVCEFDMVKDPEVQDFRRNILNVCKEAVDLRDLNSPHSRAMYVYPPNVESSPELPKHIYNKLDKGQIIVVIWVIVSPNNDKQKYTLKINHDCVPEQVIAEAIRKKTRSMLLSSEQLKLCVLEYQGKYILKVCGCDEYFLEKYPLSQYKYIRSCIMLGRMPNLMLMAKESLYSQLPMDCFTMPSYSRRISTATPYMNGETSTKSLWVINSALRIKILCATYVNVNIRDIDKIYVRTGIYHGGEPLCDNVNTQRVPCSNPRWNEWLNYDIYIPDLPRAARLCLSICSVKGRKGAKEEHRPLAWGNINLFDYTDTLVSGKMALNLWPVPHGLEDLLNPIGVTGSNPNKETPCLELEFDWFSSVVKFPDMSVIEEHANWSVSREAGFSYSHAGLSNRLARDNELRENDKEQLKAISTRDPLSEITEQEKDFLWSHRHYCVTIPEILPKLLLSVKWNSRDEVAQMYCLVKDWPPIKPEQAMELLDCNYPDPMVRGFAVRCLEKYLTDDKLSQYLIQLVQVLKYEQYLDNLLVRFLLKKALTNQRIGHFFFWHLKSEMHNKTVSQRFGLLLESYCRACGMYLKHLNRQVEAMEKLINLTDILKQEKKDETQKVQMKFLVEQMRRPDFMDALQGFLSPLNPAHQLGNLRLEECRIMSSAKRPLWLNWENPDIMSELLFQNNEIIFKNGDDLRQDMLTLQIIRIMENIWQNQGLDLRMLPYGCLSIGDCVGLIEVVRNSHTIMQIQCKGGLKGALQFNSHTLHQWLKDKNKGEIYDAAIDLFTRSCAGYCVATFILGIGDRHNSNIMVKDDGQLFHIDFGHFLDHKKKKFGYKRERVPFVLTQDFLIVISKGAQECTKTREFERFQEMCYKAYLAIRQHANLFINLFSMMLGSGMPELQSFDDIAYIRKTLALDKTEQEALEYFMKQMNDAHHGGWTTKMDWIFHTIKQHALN", "how_it_was_run": "as §1"}, "BRSK2": {"target": "T14, BRSK2 (Homo sapiens, UniProt Q8IWQ3)", "T14 construct": "purchased DiscoveRx Corporation (KinomeScan)", "how_it_was_run": "as §1"}, "PYK2": {"target": "T15, PYK2 (Homo sapiens, UniProt Q14289)", "T15 construct": "purchased DiscoveRx Corporation", "how_it_was_run": "as §1"}, "KIT(A829P)": {"target": "T16, KIT(A829P) (Homo sapiens, UniProt P10721, A829P)", "T16 construct": "purchased DiscoveRx Corporation (KinomeScan)", "T16 sequence (P10721 26-976 A829P)": "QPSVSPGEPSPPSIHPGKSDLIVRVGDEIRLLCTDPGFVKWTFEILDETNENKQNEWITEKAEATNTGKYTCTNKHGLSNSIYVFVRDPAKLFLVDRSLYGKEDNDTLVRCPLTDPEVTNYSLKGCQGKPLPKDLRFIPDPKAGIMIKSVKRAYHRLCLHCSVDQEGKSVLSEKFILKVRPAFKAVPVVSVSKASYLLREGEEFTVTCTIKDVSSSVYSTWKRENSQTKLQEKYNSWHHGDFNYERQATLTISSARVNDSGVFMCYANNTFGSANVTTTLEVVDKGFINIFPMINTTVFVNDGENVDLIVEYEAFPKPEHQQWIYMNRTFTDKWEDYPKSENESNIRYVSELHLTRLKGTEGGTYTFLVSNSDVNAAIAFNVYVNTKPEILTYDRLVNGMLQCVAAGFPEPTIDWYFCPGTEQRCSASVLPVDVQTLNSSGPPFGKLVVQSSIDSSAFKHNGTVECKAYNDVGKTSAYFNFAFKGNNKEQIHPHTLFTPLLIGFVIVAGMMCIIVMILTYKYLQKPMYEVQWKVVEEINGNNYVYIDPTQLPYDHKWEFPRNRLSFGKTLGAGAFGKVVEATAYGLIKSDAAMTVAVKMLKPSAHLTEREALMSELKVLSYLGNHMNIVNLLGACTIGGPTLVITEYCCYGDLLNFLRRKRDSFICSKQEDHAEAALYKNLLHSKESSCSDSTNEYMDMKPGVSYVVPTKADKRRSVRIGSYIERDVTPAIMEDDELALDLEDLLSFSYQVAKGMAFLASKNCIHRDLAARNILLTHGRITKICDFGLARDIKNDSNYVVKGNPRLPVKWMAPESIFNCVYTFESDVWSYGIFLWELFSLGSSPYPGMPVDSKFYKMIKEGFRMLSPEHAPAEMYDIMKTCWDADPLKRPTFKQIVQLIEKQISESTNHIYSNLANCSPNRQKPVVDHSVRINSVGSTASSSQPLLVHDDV", "how_it_was_run": "as §1"}, "CDC2L1": {"target": "T17, CDC2L1 (Homo sapiens, UniProt P21127)", "T17 construct": "purchased DiscoveRx Corporation (KinomeScan)", "how_it_was_run": "as §1"}, "AURKB": {"target": "T18, AURKB (Homo sapiens, UniProt Q96GD4)", "T18 construct": "purchased DiscoveRx Corporation (KinomeScan)", "how_it_was_run": "as §1"}, "SIK": {"target": "T19, SIK (Homo sapiens, UniProt P57059)", "T19 construct": "purchased DiscoveRx Corporation (KinomeScan)", "how_it_was_run": "as §1"}, "YANK3": {"target": "T20, YANK3 (Homo sapiens, UniProt Q86UX6)", "T20 construct": "purchased DiscoveRx Corporation (KinomeScan service)", "how_it_was_run": "as §1"}, "CDKL2": {"target": "T21, CDKL2 (Homo sapiens, UniProt Q92772)", "T21 construct": "purchased DiscoveRx Corporation (KinomeScan)", "how_it_was_run": "as §1"}, "GCN2(kin.dom.2.S808G)": {"target": "T22, GCN2(kin.dom.2.S808G) (Homo sapiens, UniProt Q9P2K8, S808G)", "T22 construct": "GCN2(kin.dom.2.S808G); purchased DiscoveRx Corporation (KinomeScan)", "T22 sequence (Q9P2K8 590-1001 S808G limits assumed)": "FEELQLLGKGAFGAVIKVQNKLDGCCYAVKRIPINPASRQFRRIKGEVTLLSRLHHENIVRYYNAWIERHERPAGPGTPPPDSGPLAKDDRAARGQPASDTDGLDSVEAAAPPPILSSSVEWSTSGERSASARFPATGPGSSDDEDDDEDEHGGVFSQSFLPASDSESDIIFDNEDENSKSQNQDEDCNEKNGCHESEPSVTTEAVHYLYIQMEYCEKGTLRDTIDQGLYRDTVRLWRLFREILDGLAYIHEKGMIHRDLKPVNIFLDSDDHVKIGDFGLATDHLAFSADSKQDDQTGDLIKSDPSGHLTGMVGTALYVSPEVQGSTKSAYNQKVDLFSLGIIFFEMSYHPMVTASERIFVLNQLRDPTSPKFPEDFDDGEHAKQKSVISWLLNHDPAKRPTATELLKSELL", "how_it_was_run": "as §1"}, "ROCK2": {"target": "T23, ROCK2 (Homo sapiens, UniProt O75116)", "T23 construct": "purchased DiscoveRx Corporation", "how_it_was_run": "as §1"}, "CAMK2D": {"target": "T24, CAMK2D (Homo sapiens, UniProt Q13557)", "T24 construct": "purchased DiscoveRx Corporation (KinomeScan)", "how_it_was_run": "as §1"}, "ACVRL1": {"target": "T25, ACVRL1 (Homo sapiens, UniProt P37023)", "T25 construct": "purchased DiscoveRx Corporation (KinomeScan)", "T25 sequence (P37023 22-503)": "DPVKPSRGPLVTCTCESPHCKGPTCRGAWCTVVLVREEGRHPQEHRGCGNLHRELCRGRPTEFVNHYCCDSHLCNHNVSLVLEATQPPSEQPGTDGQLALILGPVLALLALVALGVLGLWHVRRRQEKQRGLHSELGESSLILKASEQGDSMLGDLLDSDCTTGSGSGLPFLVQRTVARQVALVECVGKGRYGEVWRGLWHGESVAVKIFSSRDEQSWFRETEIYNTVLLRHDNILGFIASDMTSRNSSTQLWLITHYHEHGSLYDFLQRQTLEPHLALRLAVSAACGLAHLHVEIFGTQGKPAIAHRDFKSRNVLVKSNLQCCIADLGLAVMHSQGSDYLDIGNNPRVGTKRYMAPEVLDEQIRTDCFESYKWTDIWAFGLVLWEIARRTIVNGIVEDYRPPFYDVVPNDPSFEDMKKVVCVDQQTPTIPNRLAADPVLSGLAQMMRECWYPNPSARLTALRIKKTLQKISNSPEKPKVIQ", "how_it_was_run": "as §1"}, "PIK3CA(E545K)": {"target": "T26, PIK3CA(E545K) (Homo sapiens, UniProt P42336, E545K)", "T26 construct": "purchased DiscoveRx Corporation (KinomeScan)", "T26 sequence (P42336 whole entry E545K)": "as the sequence (P42336 whole entry C420R) above, with R420C, E545K counted along it", "how_it_was_run": "as §1"}, "MST3": {"target": "T27, MST3 (Homo sapiens, UniProt Q9Y6E0)", "T27 construct": "purchased DiscoveRx Corporation (KinomeScan)", "how_it_was_run": "as §1"}, "PKMYT1": {"target": "T28, PKMYT1 (Homo sapiens, UniProt Q99640)", "T28 construct": "purchased DiscoveRx Corporation (KinomeScan)", "how_it_was_run": "as §1"}, "CSK": {"target": "T29, CSK (Homo sapiens, UniProt P41240)", "T29 construct": "purchased DiscoveRx Corporation (KinomeScan)", "how_it_was_run": "as §1"}, "[2]": {"target": "T30, RSK1(Kin.Dom.1-N-terminal) (Homo sapiens, UniProt Q15418)", "T30 construct": "Kin.Dom.1; purchased DiscoveRx Corporation", "T30 sequence (Q15418 62-321 limits assumed)": "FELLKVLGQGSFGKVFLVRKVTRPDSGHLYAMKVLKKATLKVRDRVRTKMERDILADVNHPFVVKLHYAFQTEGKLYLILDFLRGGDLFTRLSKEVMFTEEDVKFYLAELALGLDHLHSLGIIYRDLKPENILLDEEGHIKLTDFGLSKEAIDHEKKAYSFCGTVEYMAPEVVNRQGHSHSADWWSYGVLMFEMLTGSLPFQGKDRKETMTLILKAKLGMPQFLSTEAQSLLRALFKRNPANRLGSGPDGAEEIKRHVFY", "how_it_was_run": "as §1"}, "ADCK4": {"target": "T31, ADCK4 (Homo sapiens, UniProt Q96D53)", "T31 construct": "purchased DiscoveRx Corporation (KinomeScan)", "how_it_was_run": "as §1"}, "ASK1": {"target": "T32, ASK1 (Homo sapiens, UniProt Q99683)", "T32 construct": "purchased DiscoveRx Corporation (KinomeScan)", "how_it_was_run": "as §1"}, "DRAK1": {"target": "T33, DRAK1 (Homo sapiens, UniProt Q9UEE5)", "T33 construct": "purchased DiscoveRx Corporation (KinomeScan)", "how_it_was_run": "as §1"}, "FLT3(R834Q)": {"target": "T34, FLT3(R834Q) (Homo sapiens, UniProt P36888, R834Q)", "T34 construct": "purchased DiscoveRx Corporation (KinomeScan)", "how_it_was_run": "as §1"}, "ZAP7C": {"target": "T35, ZAP7C (Homo sapiens, UniProt P43403)", "T35 construct": "purchased DiscoveRx Corporation (KinomeScan service)", "T35 sequence (P43403 whole entry)": "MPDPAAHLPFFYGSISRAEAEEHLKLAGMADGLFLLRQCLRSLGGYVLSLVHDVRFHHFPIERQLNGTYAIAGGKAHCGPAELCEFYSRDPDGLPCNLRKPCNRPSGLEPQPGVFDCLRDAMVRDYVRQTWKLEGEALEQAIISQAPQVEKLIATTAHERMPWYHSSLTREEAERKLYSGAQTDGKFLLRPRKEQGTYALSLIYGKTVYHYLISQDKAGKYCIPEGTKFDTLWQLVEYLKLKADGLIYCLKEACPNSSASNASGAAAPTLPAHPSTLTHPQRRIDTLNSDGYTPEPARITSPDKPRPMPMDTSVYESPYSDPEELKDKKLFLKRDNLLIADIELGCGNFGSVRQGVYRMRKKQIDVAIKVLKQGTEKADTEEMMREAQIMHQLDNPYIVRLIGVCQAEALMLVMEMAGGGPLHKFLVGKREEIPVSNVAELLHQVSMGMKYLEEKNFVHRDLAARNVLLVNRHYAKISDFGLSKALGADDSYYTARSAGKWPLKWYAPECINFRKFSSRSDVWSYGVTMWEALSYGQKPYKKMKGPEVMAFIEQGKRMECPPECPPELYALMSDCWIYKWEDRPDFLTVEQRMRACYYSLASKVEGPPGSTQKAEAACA", "how_it_was_run": "as §1"}},
  "data": [
    {"smiles": "CCOP(=O)(CN1CCC(COc2cc3nccc(Oc4ccc(NC(=O)C5(C(=O)Nc6ccc(F)cc6)CC5)cc4F)c3cc2OC)CC1)OCC", "note": "[Example 10, N1-[4-[[7-[[1-(diethoxyphosphorylmethyl)-4-piperidinyl]methoxyl]-6-methoxyl-4-quinolyl]oxyl]-3-fluorophenyl]-N1′-(4-fluorophenyl)cyclopropane-1,1-dicarboxamide]", "values": [
      {"measurement": "% Ctrl@1000 nM", "setting": "CSNK1A1", "value": 100, "unit": "% Ctrl"},
      {"measurement": "% Ctrl@1000 nM", "setting": "ERK3", "value": 100, "unit": "% Ctrl"},
      {"measurement": "% Ctrl@1000 nM", "setting": "EGFR(G719S)", "value": 81, "unit": "% Ctrl"},
      {"measurement": "% Ctrl@1000 nM", "setting": "RIOK3", "value": 100, "unit": "% Ctrl"},
      {"measurement": "% Ctrl@1000 nM", "setting": "TGFBR2", "value": 100, "unit": "% Ctrl"},
      {"measurement": "% Ctrl@1000 nM", "setting": "IRAK3", "value": 33, "unit": "% Ctrl"},
      {"measurement": "% Ctrl@1000 nM", "setting": "BMPR2", "value": 100, "unit": "% Ctrl"},
      {"measurement": "% Ctrl@1000 nM", "setting": "PRKCH", "value": 100, "unit": "% Ctrl"},
      {"measurement": "% Ctrl@1000 nM", "setting": "MET", "value": 7.7, "unit": "% Ctrl"},
      {"measurement": "% Ctrl@1000 nM", "setting": "IGF1R", "value": 94, "unit": "% Ctrl"},
      {"measurement": "% Ctrl@1000 nM", "setting": "CLK1", "value": 89, "unit": "% Ctrl"},
      {"measurement": "% Ctrl@1000 nM", "setting": "[1]", "value": 2.4, "unit": "% Ctrl"},
      {"measurement": "% Ctrl@1000 nM", "setting": "PIK3CA(C420R)", "value": 100, "unit": "% Ctrl"},
      {"measurement": "% Ctrl@1000 nM", "setting": "BRSK2", "value": 100, "unit": "% Ctrl"},
      {"measurement": "% Ctrl@1000 nM", "setting": "PYK2", "value": 19, "unit": "% Ctrl"},
      {"measurement": "% Ctrl@1000 nM", "setting": "KIT(A829P)", "value": 64, "unit": "% Ctrl"},
      {"measurement": "% Ctrl@1000 nM", "setting": "CDC2L1", "value": 100, "unit": "% Ctrl"},
      {"measurement": "% Ctrl@1000 nM", "setting": "AURKB", "value": 74, "unit": "% Ctrl"},
      {"measurement": "% Ctrl@1000 nM", "setting": "SIK", "value": 60, "unit": "% Ctrl"},
      {"measurement": "% Ctrl@1000 nM", "setting": "YANK3", "value": 100, "unit": "% Ctrl"},
      {"measurement": "% Ctrl@1000 nM", "setting": "CDKL2", "value": 100, "unit": "% Ctrl"},
      {"measurement": "% Ctrl@1000 nM", "setting": "GCN2(kin.dom.2.S808G)", "value": 100, "unit": "% Ctrl"},
      {"measurement": "% Ctrl@1000 nM", "setting": "ROCK2", "value": 100, "unit": "% Ctrl"},
      {"measurement": "% Ctrl@1000 nM", "setting": "CAMK2D", "value": 94, "unit": "% Ctrl"},
      {"measurement": "% Ctrl@1000 nM", "setting": "ACVRL1", "value": 100, "unit": "% Ctrl"},
      {"measurement": "% Ctrl@1000 nM", "setting": "PIK3CA(E545K)", "value": 100, "unit": "% Ctrl"},
      {"measurement": "% Ctrl@1000 nM", "setting": "MST3", "value": 100, "unit": "% Ctrl"},
      {"measurement": "% Ctrl@1000 nM", "setting": "PKMYT1", "value": 100, "unit": "% Ctrl"},
      {"measurement": "% Ctrl@1000 nM", "setting": "CSK", "value": 14, "unit": "% Ctrl"},
      {"measurement": "% Ctrl@1000 nM", "setting": "[2]", "value": 59, "unit": "% Ctrl"},
      {"measurement": "% Ctrl@1000 nM", "setting": "ADCK4", "value": 100, "unit": "% Ctrl"},
      {"measurement": "% Ctrl@1000 nM", "setting": "ASK1", "value": 100, "unit": "% Ctrl"},
      {"measurement": "% Ctrl@1000 nM", "setting": "DRAK1", "value": 100, "unit": "% Ctrl"},
      {"measurement": "% Ctrl@1000 nM", "setting": "FLT3(R834Q)", "value": 16, "unit": "% Ctrl"},
      {"measurement": "% Ctrl@1000 nM", "setting": "ZAP7C", "value": 81, "unit": "% Ctrl"}
    ]}
  ]
}
